From US20100028259A1, “USE OF ORGANIC CATION TRANSPORTERS FOR CANCER DIAGNOSIS AND THERAPY” (The Regents of the University of California, priority 2006, published 2010)
Like-named read-outs stand apart in the source and are kept apart here.

How the values were obtained:
HT29 = assay: MTT drug sensitivity, colon cancer cell line HT29; type: cell-based, human
Method: (§1) Cytotoxicity of the platinum-based compounds was measured by MTT (thiazolyl blue tetrazolium bromide) assay. Cells were seeded in 100 μl of the culture medium without any antibiotics in 96-well plates at a predetermined cell density. For HEK 293 cells, poly-D-lysine coated plates were used. […] For the OCT inhibitor studies, the inhibitors (i.e., disopyramide or cimetidine) were added to the medium at a specified concentration immediately before the addition of the platinum-based compounds. After incubation for a specified time period, the drug-containing medium was replaced with fresh, drug-free medium and the incubation was continued for a total of 72 hours (start from the addition of platinum-based compounds). Then, the MTT assay was performed similarly as described in Alley et al., Cancer Res., 48:589-601 (1988). […] The maximal cell growth was the cell growth in the medium without any platinum-based compounds; C is the concentration of the platinum-based compound, and γ is the slope factor.
(§2) The cell seeding density was 6,000-, 8,000-, 6,000-, 15,000-12,000- and 4,000 cells/well for HCT116, HT29, RKO, SW620, LS180, and DLD cells, respectively. When cimetidine (1.5 mM) was used, it was added to the wells immediately before the addition of the platinum-based drugs. The resistance factor (RF) was defined as the ratio of the mean IC50 value in the presence to that in the absence of cimetidine. Data are expressed as mean±SD from six measurements, and each measurement was performed in quadruplicate.

HEK-MOCK cells = assay: MTT drug sensitivity assay in HEK-MOCK cells (control of HEK-hOCT2); type: cell-based, human
Method: Cytotoxicity of the platinum-based compounds was measured by MTT (thiazolyl blue tetrazolium bromide) assay. Cells were seeded in 100 μl of the culture medium without any antibiotics in 96-well plates at a predetermined cell density. For HEK 293 cells, poly-D-lysine coated plates were used. After overnight incubation, the platinum-based compounds were then added to the culture medium to give the indicated final concentrations. For the OCT inhibitor studies, the inhibitors (i.e., disopyramide or cimetidine) were added to the medium at a specified concentration immediately before the addition of the platinum-based compounds. After incubation for a specified time period, the drug-containing medium was replaced with fresh, drug-free medium and the incubation was continued for a total of 72 hours (start from the addition of platinum-based compounds). Then, the MTT assay was performed similarly as described in Alley et al., Cancer Res., 48:589-601 (1988). […] The maximal cell growth was the cell growth in the medium without any platinum-based compounds; C is the concentration of the platinum-based compound, and γ is the slope factor.
(§3) Briefly, the cells were seeded in 96-well plates at a density of 5,000 cells/well for the transfected MDCK cells or 12,000 cells/well for the transfected HEK 293 cells. The platinum-based drugs were added on the following day. After the specified time periods of drug exposure, the drug-containing medium was replaced with fresh, drug-free medium, and the incubation was continued for a total of 72 hours (start from the time when the drug was added). After incubation, the cell growth was determined by an MTT assay. Data are expressed as mean±SD from 3 to 6 independent experiments with each performed in quadruplicate. The resistance factor (RF) was defined as the ratio of the mean IC50 value in the MOCK cells to that in the OCT-transfected cells.

MDCK-MOCK cells = assay: Cellular accumulation of platinum in MDCK-MOCK cells (ICP-MS); type: in vitro ADME, canine; settings: 2-hr exposure
Method: For the inhibitor studies, the incubation medium also contained disopyramide (150 μM). […] For the inhibitor studies, the incubation medium also contained cimetidine (1.5 mM). […] After drug exposure, the cells were washed with ice-cold PBS three times and harvested by scraping and centrifugation. The cell-associated platinum was determined by ICP-MS and normalized for protein content. Data are expressed as mean±SD from a single experiment performed in triplicate. Experiments were replicated for OCT1 and OCT2, and similar results were obtained.
The cellular accumulation of platinum was determined as described in Holzer et al., Mol. Pharmacol., 66:817-823 (2004) with some modifications. Briefly, the cells were grown in 100 mm×20 mm dishes in the culture medium without any antibiotics to over 90% confluence. For HEK 293 cells, poly-D-lysine coated dishes were used. For platinum accumulation, the cells were incubated in the culture medium containing the indicated concentrations of the platinum compounds at 37° C. in 5% CO2 for 2 hr unless specified. After incubation, the dishes were immediately placed on ice and the cells were washed with 6 ml of ice-cold PBS for three times and collected with a rubber policeman. The cell pellets were obtained by centrifugation at 400×g and at 4° C. for 15 min. For the OCT inhibitor studies, the incubation medium also contained the indicated inhibitor (i.e., disopyramide or cimetidine) in addition to the platinum-based compounds. The resulting cell pellets were then dissolved into 200 μl of 70% nitric acid at 65° C. for at least 2.5 hours, and then distilled water containing 10 ppb of iridium (Sigma) and 0.1% Triton X-100 was added to the samples to dilute nitric acid to 7%. The platinum content was measured by inductively plasma coupled mass spectrometry (ICP-MS) in the Analytical Facility at the University of California at Santa Cruz (Santa Cruz, Calif.). Cell lysates from a set of identical cultures were used for BCA protein assay.

LS180 = assay: MTT drug sensitivity, colon cancer cell line LS180; type: cell-based, human
Method: as §1, §2

MDCK-hOCT1 cells = assay: MTT drug sensitivity assay in MDCK-hOCT1 cells; type: cell-based, canine
Method: as §1, §3
Briefly, MDCK cells were seeded at a density of 5,000 cells/well in 96-well plates and exposed to the test compounds for 7 hours on the following day. After incubation for a total of 72 hours, the cell growth was determined by an MTT assay. The data for carboplatin was taken from Table 1 and was not determined simultaneously with the other compounds. The resistance factor (RF) was defined as the ratio of the mean IC50 value in MDCK-MOCK cells to that in MDCK-hOCT1 cells. Data are expressed as mean±SD from six measurements, and each measurement was performed in quadruplicate.

**Q.** For O=C1[O][Pt]2([NH][C@@H]3CCCC[C@H]3[NH]2)[O]C1=O [oxaliplatin], which IC50 (HT29; HT29, absence of cimetidine, read-out: IC50 Control) is on record?
**A.** 4.56 ± 1.4 µM

**Q.** And the IC50 (HT29; HT29, cimetidine 1.5 mM, read-out: IC50 Cimetidine-treated)?
**A.** 52.1 ± 18.5 µM

**Q.** What about the IC50 (HEK-MOCK cells; co-incubation with cimetidine 1.5 mM, read-out: IC50 in HEK-MOCK, cimetidine-treated) of the same compound?
**A.** 9.5 ± 2.95 µM

**Q.** What about the IC50 (HEK-MOCK cells; drug exposure 7 hour, Table 2, read-out: IC50 HEK-MOCK) of the same compound?
**A.** 2.99 ± 1.51 µM

**Q.** And the IC50 (HEK-MOCK cells; drug exposure 24 hour, Table 2, read-out: IC50 HEK-MOCK)?
**A.** 1.5 ± 0.69 µM

**Q.** What about the IC50 (HEK-MOCK cells; drug exposure 72 hour, Table 2, read-out: IC50 HEK-MOCK) of the same compound?
**A.** 0.93 ± 0.056 µM

**Q.** And the “cellular platinum accumulation rate in MDCK-MOCK, disopyramide-treated” value (MDCK-MOCK cells; 3 μM, disopyramide 150 μM)?
**A.** 3.23±0.31 pmol/mg protein-hour

**Q.** What about the “cellular platinum accumulation rate in MDCK-MOCK” value (MDCK-MOCK cells; drug 3 μM) of the same compound?
**A.** 2.94±0.11 pmol/mg protein-hr

**Q.** What about the IC50 (LS180; LS180, absence of cimetidine, read-out: IC50 Control) of the same compound?
**A.** 1.3 ± 0.41 µM

**Q.** And the IC50 (LS180; LS180, cimetidine 1.5 mM, read-out: IC50 Cimetidine-treated)?
**A.** 8.39 ± 2.77 µM

**Q.** What about the IC50 (MDCK-hOCT1 cells; SAR study Table 4, 7 hours of drug exposure, read-out: IC50 MDCK-hOCT1) of the same compound?
**A.** 0.48 ± 0.19 µM

**Q.** What about the IC50 (MDCK-hOCT1 cells; co-incubation with disopyramide 150 μM, read-out: IC50 in MDCK-hOCT1, disopyramide-treated) of the same compound?
**A.** 22.8 ± 10.5 µM

**Q.** What about the IC50 (MDCK-hOCT1 cells; disopyramide study (FIG. 2D), without disopyramide, read-out: IC50 in MDCK-hOCT1, control) of the same compound?
**A.** 3.79 ± 1.57 µM

**Q.** What about the IC50 (MDCK-hOCT1 cells; drug exposure 7 hour, MTT at 72 hours, Table 1, read-out: IC50 MDCK-hOCT1) of the same compound?
**A.** 3.89 ± 1.3 µM

**Q.** And the IC50 (MDCK-hOCT1 cells; drug exposure 24 hour, MTT at 72 hours, Table 1, read-out: IC50 MDCK-hOCT1)?
**A.** 1.79 ± 0.58 µM

**Q.** What about the IC50 (MDCK-hOCT1 cells; drug exposure 72 hour, Table 1, read-out: IC50 MDCK-hOCT1) of the same compound?
**A.** 1.68 ± 0.27 µM
